Measurements taken from patent US7491794B2, “Macrocyclic compounds as inhibitors of viral replication” (Intermune, Inc., priority 2003, dated 2009).
Structures can show the parent of a compound that is named as a salt.

The molecules below were run against T1, NS3-NS4A protease (Hepatitis C virus genotype 1a, UniProt P27958) (assay: NS3-NS4A protease assay (NS3 inhibition assay, RETS1 substrate), Section B). Conditions: read-out: NS3-NS4A IC50.
T1 construct: Recombinant E. coli or Baculovirus full-length NS3 was diluted to 3.33 μM with assay buffer; made in house; host or cells: E. coli or baculovirus (BV) system
T1 sequence (P27958 1027-1657): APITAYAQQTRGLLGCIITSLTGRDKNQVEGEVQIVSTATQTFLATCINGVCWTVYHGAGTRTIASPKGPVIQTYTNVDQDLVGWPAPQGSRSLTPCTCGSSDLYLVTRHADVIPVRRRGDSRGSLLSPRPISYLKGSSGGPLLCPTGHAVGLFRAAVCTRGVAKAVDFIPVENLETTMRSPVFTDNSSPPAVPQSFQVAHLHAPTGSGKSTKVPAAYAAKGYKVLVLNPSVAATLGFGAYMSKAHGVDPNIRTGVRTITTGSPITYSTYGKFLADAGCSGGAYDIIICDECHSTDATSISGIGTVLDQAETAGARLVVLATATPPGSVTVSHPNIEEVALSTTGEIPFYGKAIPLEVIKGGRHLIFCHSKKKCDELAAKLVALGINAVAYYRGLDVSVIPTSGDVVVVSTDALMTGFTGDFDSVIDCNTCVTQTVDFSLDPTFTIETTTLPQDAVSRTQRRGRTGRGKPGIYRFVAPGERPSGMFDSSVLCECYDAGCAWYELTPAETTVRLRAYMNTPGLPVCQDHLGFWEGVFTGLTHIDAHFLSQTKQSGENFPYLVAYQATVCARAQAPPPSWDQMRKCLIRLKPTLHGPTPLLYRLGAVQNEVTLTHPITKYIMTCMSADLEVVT
Format: biochemical
Protocol: NS3 complex formation with NS4A-2
Recombinant E. coli or Baculovirus full-length NS3 was diluted to 3.33 μM with assay buffer and the material transferred to an eppendorf tube and place in water bath in 4° C. refrigerator. The appropriate amount of NS4A-2 to 8.3 mM in assay buffer was added to equal the volume of NS3 in step 2.1.1 (conversion factor −3.8 mg/272 μL assay buffer). The material was transferred to an eppendorf tube and placed in a water bath in a 4° C. refrigerator.
After equilibration to 4° C., equal volumes of NS3 and NS4A-2 solutions were combined in an eppendorf tube, mixed gently with a manual pipettor, and the mixture incubated for 15 minutes in the 4° C. water bath. Final concentrations in the mixture were 1.67 μM NS3, 4.15 mM NS4A-2 (2485-fold molar excess NS4A-2).
After 15 minutes at 4° C., the NS3/NS4A-2 eppendorf tube was removed and placed in a room temperature water bath for 10 minutes. NS3/NS4A-2 was aliquoted at appropriate volumes and store at −80° C. (E. coli NS3 run at 2 nM in assay, aliquot at 25 μL. BV NS3 run at 3 nM in assay, aliquot at 30 μL.
Step 2.2.5. Sample compounds were dissolved to 10 mM in DMSO then diluted to 2.5 mM (1:4) in DMSO.
Step 2.2.6. The E. coli NS3/NS4A-2 was diluted to 4 nM NS3 (1:417.5 of 1.67 μM stock−18 μL 1.67 μM stock+7497 μL assay buffer).
The BV NS3/NS4A-2 was diluted to 6 nM NS3 (1:278.3 of 1.67 μM stock−24 μL 1.67 μM stock+6655 μL assay buffer).
Step 2.2.7. Using the manual multichannel pipettor, and being careful not to introduce bubbles into the plate, 50 μL assay buffer was added to wells A01-H01 of a black Costar 96-well polypropylene storage plate.
Step 2.2.8. Using the manual multichannel pipettor, and being careful not to introduce bubbles into the plate, 50 μL of diluted NS3/NS4A-2 from step 2.2.6 was added to wells A02-H12 of plate in step 2.2.7.
Step 2.2.9. Using the manual multichannel pipettor, and being careful not to introduce bubbles into the plate, 25 μL of the wells in drug dilution plate in step 2.2.5 were transferred to corresponding wells in assay plate in step 2.2.8. The tips on multichannel pipettor were changed for each row of compounds transferred.
Step 2.2.10. Using the manual multichannel pipettor, and being careful not to introduce bubbles into the plate, the wells from the assay plate in step 2.2.9 were mixed by aspirating and dispensing 35 μL of the 75 μL in each well five times. The tips on multichannel pipettor were changed for each row of wells mixed.
Step 2.2.11. The plate was covered with a polystyrene plate lid, and the plate from step 2.2.10 containing NS3 protease and sample compounds was pre-incubated 10 minutes at room temperature.
While the plate from step 2.2.11 was pre-incubating, the RETS1 substrate was diluted in a 15 mL polypropylene centrifuge tube. The RETS1 substrate was diluted to 8 μM (1:80.75 of 646 μM stock−65 μL 646 μM stock+5184 μL assay buffer).
After the plate in step 2.2.11 was done pre-incubating, and using the manual multichannel, 25 μL of substrate was added to all wells on the plate. The contents of the wells were quickly mixed, as in step 2.2.10, but mixing 65 μL of the 100 μL in the wells.
The plate was read in kinetic mode on the Molecular Devices SpectraMax Gemini XS plate reader. Reader settings: Read time: 30 minutes, Interval: 36 seconds, Reads: 51, Excitation λ: 335 nm, Emission λ: 495 nm, cutoff: 475 nm, Automix: off, Calibrate: once, PMT: high, Reads/well: 6, Vmax pts: 21 or 28/51 depending on length of linearity of reaction.
IC50s were determined using a four parameter curve fit equation, and converted to Ki's using the following Km's:
where Ki=IC50/(1+[S]/Km))

`CN(C)CC1c2ccccc2CCN1C(=O)O[C@@H]1C[C@H]2C(=O)N[C@]3(C(=O)O)C[C@H]3/C=C\CCCCC[C@H](NC(=O)OC(C)(C)C)C(=O)N2C1` (stereo partly drawn) [AR00333224, (1S,4R,6S,14S,18R)-14-tert-Butoxycarbonylamino-18-(1-dimethylaminomethyl-3,4-dihydro-1H-isoquinoline-2-carbonyloxy)-2,15-dioxo-3,16-diaza-tricyclo[14.3.0.0^4,6]nonadec-7-ene-4-carboxylic acid] and `COc1ccc2c(c1)CCN(C(=O)O[C@@H]1C[C@H]3C(=O)N[C@]4(C(=O)O)C[C@H]4/C=C\CCCCC[C@H](NC(=O)OC(C)(C)C)C(=O)N3C1)C2CN(C)C` (stereo partly drawn) [AR00333277, (1S,4R,6S,14S,18R)-14-tert-Butoxycarbonylamino-18-(1-dimethylaminomethyl-6-methoxy-3,4-dihydro-1H-isoquinoline-2-carbonyloxy)-2,15-dioxo-3,16-diaza-tricyclo[14.3.0.0^4,6]nonadec-7-ene-4-carboxylic acid] cannot be ordered by IC50: < 10000 nM for the first, < 10000 nM for the second.

`CC(C)(C)OC(=O)N[C@H]1CCCCC/C=C\[C@@H]2C[C@@]2(C(=O)O)NC(=O)[C@@H]2C[C@@H](OC(=O)N3CCc4ccccc4C3CN3CCOCC3)CN2C1=O` (stereo partly drawn) [AR00333225, (1S,4R,6S,14S,18R)-14-tert-Butoxycarbonylamino-18-(1-morpholin-4-ylmethyl-3,4-dihydro-1H-isoquinoline-2-carbonyloxy)-2,15-dioxo-3,16-diaza-tricyclo[14.3.0.0^4,6]nonadec-7-ene-4-carboxylic acid] and `COc1ccc2c(c1)CCN(C(=O)O[C@@H]1C[C@H]3C(=O)N[C@]4(C(=O)O)C[C@H]4/C=C\CCCCC[C@H](NC(=O)OC(C)(C)C)C(=O)N3C1)C2CN1CCOCC1` (stereo partly drawn) [AR00333276, (1S,4R,6S,14S,18R)-14-tert-Butoxycarbonylamino-18-(6-methoxy-1-morpholin-4-ylmethyl-3,4-dihydro-1H-isoquinoline-2-carbonyloxy)-2,15-dioxo-3,16-diaza-tricyclo[14.3.0.0^4,6]nonadec-7-ene-4-carboxylic acid] cannot be ordered by IC50: < 10000 nM for the first, < 10000 nM for the second.

`COc1ccc2c(c1)CCN(C(=O)O[C@@H]1C[C@H]3C(=O)N[C@]4(C(=O)O)C[C@H]4/C=C\CCCCC[C@H](NC(=O)OC(C)(C)C)C(=O)N3C1)C2CN1CCCCC1` (stereo partly drawn) [AR00333248, (1S,4R,6S,14S,18R)-14-tert-Butoxycarbonylamino-18-(6-methoxy-1-piperidin-1-ylmethyl-3,4-dihydro-1H-isoquinoline-2-carbonyloxy)-2,15-dioxo-3,16-diaza-tricyclo[14.3.0.0^4,6]nonadec-7-ene-4-carboxylic acid] and `CC(C)(C)OC(=O)N[C@H]1CCCCC/C=C\[C@@H]2C[C@@]2(C(=O)O)NC(=O)[C@@H]2C[C@@H](OC(=O)N3Cc4ccc(OCCN5CCOCC5)cc4C3)CN2C1=O` [AR00371946, (1S,4R,6S,14S,18R)-14-tert-Butoxycarbonylamino-18-[5-(2-morpholin-4-yl-ethoxy)-1,3-dihydro-isoindole-2-carbonyloxy]-2,15-dioxo-3,16-diaza-tricyclo[14.3.0.0^4,6]nonadec-7-ene-4-carboxylic acid] cannot be ordered by IC50: < 10000 nM for the first, < 100 nM for the second.

`CC(C)(C)OC(=O)N[C@H]1CCCCC/C=C\[C@@H]2C[C@@]2(C(=O)NS(=O)(=O)c2cc(C(=O)O)ccc2Cl)NC(=O)[C@@H]2C[C@@H](OC(=O)N3Cc4ccccc4C3)CN2C1=O` [AR00365388, (1S,4R,6S,14S,18R)-1,3-Dihydro-isoindole-2-carboxylic acid 14-tert-butoxycarbonylamino-4-(5-carboxy-2-chloro-benzenesulfonylaminocarbonyl)-2,15-dioxo-3,16-diaza-tricyclo[14.3.0.0^4,6]nonadec-7-en-18-yl ester] and `COc1ccc(S(=O)(=O)NC(=O)[C@@]23C[C@H]2/C=C\CCCCC[C@H](NC(=O)OC(C)(C)C)C(=O)N2C[C@H](OC(=O)N4Cc5ccccc5C4)C[C@H]2C(=O)N3)cc1C(=O)O` [AR00365425, (1S,4R,6S,14S,18R)-1,3-Dihydro-isoindole-2-carboxylic acid 14-tert-butoxycarbonylamino-4-(3-carboxy-4-methoxy-benzenesulfonylaminocarbonyl)-2,15-dioxo-3,16-diaza-tricyclo[14.3.0.0^4,6]nonadec-7-en-18-yl ester] cannot be ordered by IC50: < 100 nM for the first, < 100 nM for the second.

`CN(C)CCOc1ccc2c(c1)CN(C(=O)O[C@@H]1C[C@H]3C(=O)N[C@]4(C(=O)O)C[C@H]4/C=C\CCCCC[C@H](NC(=O)OC(C)(C)C)C(=O)N3C1)C2` [AR00371947, (1S,4R,6S,14S,18R)-14-tert-Butoxycarbonylamino-18-[5-(2-dimethylamino-ethoxy)-1,3-dihydro-isoindole-2-carbonyloxy]-2,15-dioxo-3,16-diaza-tricyclo[14.3.0.0^4,6]nonadec-7-ene-4-carboxylic acid] and `CC(C)NCCOc1ccc2c(c1)CN(C(=O)O[C@@H]1C[C@H]3C(=O)N[C@]4(C(=O)O)C[C@H]4/C=C\CCCCC[C@H](NC(=O)OC(C)(C)C)C(=O)N3C1)C2` [AR00371948, (1S,4R,6S,14S,18R)-14-tert-Butoxycarbonylamino-18-[5-(2-isopropylamino-ethoxy)-1,3-dihydro-isoindole-2-carbonyloxy]-2,15-dioxo-3,16-diaza-tricyclo[14.3.0.0^4,6]nonadec-7-ene-4-carboxylic acid] cannot be ordered by IC50: < 1000 nM for the first, < 100 nM for the second.

`COCC1c2cccc(F)c2CCN1C(=O)O[C@@H]1C[C@H]2C(=O)N[C@]3(C(=O)NS(=O)(=O)C4CC4)C[C@H]3/C=C\CCCCC[C@H](N)C(=O)N2C1` (stereo partly drawn) [AR00424775, (1S,4R,6S,14S,18R)-5-Fluoro-1-methoxymethyl-3,4-dihydro-1H-isoquinoline-2-carboxylic acid 14-amino-4-cyclopropanesulfonylaminocarbonyl-2,15-dioxo-3,16-diaza-tricyclo[14.3.0.0^4,6]nonadec-7-en-18-yl ester, HCl salt] and `N[C@H]1CCCCC/C=C\[C@@H]2C[C@@]2(C(=O)NS(=O)(=O)C2CC2)NC(=O)[C@@H]2C[C@@H](OC(=O)N3Cc4cccc(F)c4C3)CN2C1=O` [AR00424874, (1S,4R,6S,14S,18R)-4-Fluoro-1,3-dihydro-isoindole-2-carboxylic acid 14-amino-4-cyclopropanesulfonylaminocarbonyl-2,15-dioxo-3,16-diaza-tricyclo[14.3.0.0^4,6]nonadec-7-en-18-yl ester, HC1 salt] cannot be ordered by IC50: < 100 nM for the first, < 100 nM for the second.
